In ChEMBL document CHEMBL3822377, “Locking PDK1 in DFG-out conformation through 2-oxo-indole containing molecules: Another tools to fight glioblastoma” (Eur J Med Chem, 2016):
pIC50: −log10 of the molar value.

Target: 3-phosphoinositide-dependent protein kinase 1 (Homo sapiens, UniProt O15530)
Experiment: Inhibition of PDK1 (unknown origin) using AKT(Thr-308)-tide substrate
Conditions: not given

AC50 [µM]	Structure (SMILES)
2	O=C(CC(c1ccccc1)C(C(=O)O)C(=O)O)c1ccc(C(F)(F)F)cc1 (stereo not given)

Target: T1, 3-phosphoinositide-dependent protein kinase 1 (Homo sapiens) (UniProt O15530)
T1 sequence (whole entry): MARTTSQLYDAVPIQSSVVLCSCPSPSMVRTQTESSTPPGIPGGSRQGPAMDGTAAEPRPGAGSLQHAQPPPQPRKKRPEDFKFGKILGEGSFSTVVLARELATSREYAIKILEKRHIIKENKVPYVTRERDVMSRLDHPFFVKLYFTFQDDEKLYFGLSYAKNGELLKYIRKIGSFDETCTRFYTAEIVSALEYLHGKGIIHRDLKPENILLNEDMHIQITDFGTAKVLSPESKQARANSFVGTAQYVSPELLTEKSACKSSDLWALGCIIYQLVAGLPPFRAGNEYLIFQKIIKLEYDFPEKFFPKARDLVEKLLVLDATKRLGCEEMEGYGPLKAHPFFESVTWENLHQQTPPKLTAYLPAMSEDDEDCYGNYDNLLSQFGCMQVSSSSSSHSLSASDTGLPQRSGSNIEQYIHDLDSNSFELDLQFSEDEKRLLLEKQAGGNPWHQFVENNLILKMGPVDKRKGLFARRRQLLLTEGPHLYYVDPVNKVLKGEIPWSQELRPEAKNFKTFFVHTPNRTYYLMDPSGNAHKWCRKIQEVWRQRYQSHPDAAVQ
Experiment: Inhibition of PDK1 (unknown origin) at 10 uM by FRET-based Z-lyte assay
Conditions: not given

Structure (SMILES)	inhibition [%]
O=C(CNC(=O)c1cccn(Cc2ccc(F)c(F)c2)c1=O)Nc1ccc2c(c1)CC(=O)N2	57
O=C1Nc2ccc(NC(=O)c3cccn(Cc4ccc(F)c(F)c4)c3=O)cc2/C1=C/c1cccs1	< 10
O=C1Cc2cc(NC(=O)[C@H](NC(=O)c3cccn(Cc4ccc(F)c(F)c4)c3=O)c3ccccc3)ccc2N1	< 10
O=C1Nc2ccc(NC(=O)c3cccn(Cc4ccc(F)c(F)c4)c3=O)cc2/C1=C/c1cnc[nH]1	64
O=C1Cc2cc(NC(=O)c3cccn(Cc4ccc(F)c(F)c4)c3=O)ccc2N1	< 10
O=C(CNC(=O)c1cccn(Cc2ccc(F)c(F)c2)c1=O)Nc1ccc2c(c1)/C(=C\c1ccc(F)cc1)C(=O)N2	< 10
O=C1Nc2ccc(NC(=O)[C@H](NC(=O)c3cccn(Cc4ccc(F)c(F)c4)c3=O)c3ccccc3)cc2/C1=C/c1cccs1	< 10
O=C1Nc2ccc(NC(=O)c3cccn(Cc4ccc(F)c(F)c4)c3=O)cc2/C1=C\c1ccc(F)cc1	< 10
O=C(CNC(=O)c1cccn(Cc2ccc(F)c(F)c2)c1=O)Nc1ccc2c(c1)/C(=C/c1cccs1)C(=O)N2	19
O=C1Nc2ccc(NC(=O)[C@H](NC(=O)c3cccn(Cc4ccc(F)c(F)c4)c3=O)c3ccccc3)cc2/C1=C\c1ccc(F)cc1	< 10
Cn1ccnc1/C=C1/C(=O)Nc2ccc(NC(=O)c3cccn(Cc4ccc(F)c(F)c4)c3=O)cc21	< 10
O=C1Nc2ccc(NC(=O)[C@H](NC(=O)c3cccn(Cc4ccc(F)c(F)c4)c3=O)c3ccccc3)cc2/C1=C/c1ncc[nH]1	74
O=C1Nc2ccc(NC(=O)[C@H](NC(=O)c3cccn(Cc4ccc(F)c(F)c4)c3=O)c3ccccc3)cc2/C1=C/c1cnc[nH]1	95

System: not listed separately
Experiment: Antiproliferative activity against human U87MG cells after 72 hrs
Assay type: functional, cell-based, U-87MG ATCC
Conditions: U-87 MG

Structure (SMILES)	pIC50
O=C(N[C@@H](COc1ccc2[nH]c(=O)[nH]c2c1)c1ccccc1)c1cccn(Cc2ccc(F)c(F)c2)c1=O	< 4.52
